Earlier results, collected in patent US8071125B2, “Transdermal patch containing isosorbide dinitrate and bisoprolol” (Beijing Kangbeide Pharmaceutical Technology Development …, priority 2005, dated 2011).

Tested on: Patients with Primary Hypertension
Details: oral administration

**Q.** For `CC(C)NCC(O)COc1ccc(COCCOC(C)C)cc1` (stereo not shown) [Bisoprolol], which “average reduction of the heart rate after the treatment” value is on record?
**A.** 15.1%
